# Experimental data taken from ChEMBL document CHEMBL2074085, “P-glycoprotein (P-gp/MDR1)-mediated efflux of sex-steroid hormones and modulation of P-gp expression in vitro” (Pharm Res, 2004).
# Biological target: ATP-dependent translocase ABCB1 (Homo sapiens, UniProt P08183)
# Assay: TP_TRANSPORTER: transepithelial transport in MDR1-expressing MDCK cells
# Assay type: functional, cell-based
# Settings: dog
# ATP-dependent translocase ABCB1, sequence (P08183 whole entry): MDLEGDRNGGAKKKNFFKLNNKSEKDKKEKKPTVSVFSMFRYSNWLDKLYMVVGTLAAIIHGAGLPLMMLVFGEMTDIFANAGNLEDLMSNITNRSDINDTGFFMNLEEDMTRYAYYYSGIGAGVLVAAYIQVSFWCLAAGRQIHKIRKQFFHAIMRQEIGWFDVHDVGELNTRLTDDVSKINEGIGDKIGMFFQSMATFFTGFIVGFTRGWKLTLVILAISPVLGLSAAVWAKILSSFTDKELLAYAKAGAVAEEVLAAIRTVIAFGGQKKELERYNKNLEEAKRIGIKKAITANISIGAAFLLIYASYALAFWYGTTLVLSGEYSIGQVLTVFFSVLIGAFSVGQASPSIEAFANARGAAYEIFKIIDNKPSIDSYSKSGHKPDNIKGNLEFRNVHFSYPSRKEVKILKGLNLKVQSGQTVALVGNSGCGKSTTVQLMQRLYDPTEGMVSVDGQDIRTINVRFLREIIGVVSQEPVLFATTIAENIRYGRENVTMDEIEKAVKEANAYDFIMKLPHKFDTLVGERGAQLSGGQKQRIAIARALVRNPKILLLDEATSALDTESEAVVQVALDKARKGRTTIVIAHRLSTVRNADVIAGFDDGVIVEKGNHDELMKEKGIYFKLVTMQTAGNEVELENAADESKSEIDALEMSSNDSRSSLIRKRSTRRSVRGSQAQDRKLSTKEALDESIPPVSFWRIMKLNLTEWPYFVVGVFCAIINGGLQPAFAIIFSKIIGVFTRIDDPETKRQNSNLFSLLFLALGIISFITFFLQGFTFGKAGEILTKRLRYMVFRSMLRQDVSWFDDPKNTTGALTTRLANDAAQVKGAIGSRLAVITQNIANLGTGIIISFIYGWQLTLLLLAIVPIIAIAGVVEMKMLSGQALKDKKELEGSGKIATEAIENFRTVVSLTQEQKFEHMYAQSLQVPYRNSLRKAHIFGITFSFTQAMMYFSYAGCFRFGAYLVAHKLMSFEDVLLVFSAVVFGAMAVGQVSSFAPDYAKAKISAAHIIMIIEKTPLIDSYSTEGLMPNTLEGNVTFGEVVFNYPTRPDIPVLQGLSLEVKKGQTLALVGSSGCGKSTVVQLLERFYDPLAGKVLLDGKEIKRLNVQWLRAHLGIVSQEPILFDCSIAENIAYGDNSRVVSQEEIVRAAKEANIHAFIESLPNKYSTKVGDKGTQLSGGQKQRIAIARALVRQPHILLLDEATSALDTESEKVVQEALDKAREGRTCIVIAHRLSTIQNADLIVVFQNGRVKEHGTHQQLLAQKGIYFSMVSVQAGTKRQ
row,Activity,Structure (SMILES)
1,is not a substrate [-],C[C@]12CC[C@@H]3c4ccc(O)cc4CC[C@H]3[C@@H]1CC[C@@H]2O [ESTRADIOL]
2,substrate [+],C[C@]12CC[C@@H]3c4ccc(O)cc4CC[C@H]3[C@@H]1C[C@@H](O)[C@@H]2O [ESTRIOL]
3,substrate [+],C[C@]12CC[C@@H]3c4ccc(O)cc4CC[C@H]3[C@@H]1CCC2=O [ESTRONE]
4,substrate [+],C#C[C@]1(O)CC[C@H]2[C@@H]3CCc4cc(O)ccc4[C@H]3CC[C@@]21C [ETHINYL ESTRADIOL]
5,is not a substrate [-],C#C[C@]1(O)CC[C@H]2[C@@H]3CCC4=CC(=O)CC[C@@H]4[C@H]3CC[C@@]21C [NORETHINDRONE]

row,Structure (SMILES),Activity
1,CC(=O)[C@H]1CC[C@H]2[C@@H]3CCC4=CC(=O)CC[C@]4(C)[C@H]3CC[C@]12C [PROGESTERONE],is not a substrate [-]
